Consider 14 molecules from patent US20030013660A1, “Dioxolane analogs for improved inter-cellular delivery” (Shire BioChem Inc., priority 2000, published 2003).

Structures are written as SMILES. Like-named read-outs stand apart in the source and are kept apart here.

Assay in all cases: 3H-TdR (3H-thymidine) incorporation assay at 72 hr
Assay [1] relates to H-460. It counts as cell-based, Human.
Assay [2] concerns MCF-7. Type of assay: cell-based, Human.
Assay [3] has as its system SF-268. It counts as cell-based, Human.
Assay [4] relates to CCRF-CEM. It counts as cell-based. The protocol: (§1) Table of IC50 Values (μM) for Controls
(§2) Exposition of 24 hr to drug, wash, incubated for another 48 hr (total of 72 hr assay)
(§3) (3H-Thymidine Incorporation Assay)

Assay [5] has as its system CEM/dCK-. Type of assay: cell-based. The following applies: for Factor* (Resistance Factor = Ratio of dCK- on Wild-type CCRF-CEM): ratio of IC50 CEM/dCK- to CCRF-CEM, 24 h. The protocol:
as §1, §2, §3

[6] abbreviates: Homo sapiens, NCI-H460, read-out: IC50 H-460 24 h, 24 h drug exposure, wash, another 48 hr, 3H-TdR incorporation at 72 hr.
Where [7] appears, read: Homo sapiens, MCF7, read-out: IC50 MCF-7 24 h, 24 h drug exposure, wash, another 48 hr, 3H-TdR incorporation at 72 hr.
[8] abbreviates: Homo sapiens, SF-268, read-out: IC50 SF-268 24 h, 24 h drug exposure, wash, another 48 hr, 3H-TdR incorporation at 72 hr.
Setting [9] is: Homo sapiens, CCRF-CEM, read-out: IC50 CCRF-CEM 24 h, 24 h drug exposure, wash, another 48 hr, 3H-TdR incorporation at 72 hr.
Setting [10] is: Homo sapiens, CCRF-CEM, read-out: IC50 CEM/dCK- 24 h, 24 h drug exposure, wash, another 48 hr, deoxycytidine kinase-deficient CCRF-CEM.
Setting [11] is: Homo sapiens, NCI-H460, read-out: IC50 H-460 24 h.
The mark [12] stands for this setting: Homo sapiens, MCF7, read-out: IC50 MCF-7 24 h.
Setting [13] is: Homo sapiens, SF-268, read-out: IC50 SF-268 24 h.
[14] abbreviates: Homo sapiens, CCRF-CEM, read-out: IC50 CCRF-CEM 24 h.

`CN(C)/C=N/c1ccn([C@@H]2CO[C@H](COC(=O)C(C)(C)C)O2)c(=O)n1` [Compound 133, 2,2-Dimethyl-propionic acid 4-[4-(dimethylamino-methyleneamino)-2-oxo-2H-pyrimidin-1-yl]-[1,3]dioxolan-2-ylmethyl ester]: the IC50 was found to be 21 nM in assay [1] (setting [6]); 100 nM in assay [2] (setting [7]); 16 nM in assay [3] (setting [8]); 27 nM in assay [4] (setting [9]); 31000 nM in assay [5] (setting [10]). In addition, in assay [5], the “Factor* (Resistance Factor = Ratio of dCK- on Wild-type CCRF-CEM)” value is reported as 1,148.
Regarding `COc1cc2c(cc1OC)C(=O)/C(=C/c1cc(C)c(OC(=O)OC[C@H]3OC[C@@H](n4ccc(N)nc4=O)O3)c(C)c1)C2` [Compound 112], the IC50 was determined as 11 nM in assay [1] (setting [11]), 16 nM in assay [2] (setting [12]), 6.7 nM in assay [3] (setting [13]) and 5.8 nM in assay [4] (setting [14]). Also, the “Factor* (Resistance Factor = Ratio of dCK- on Wild-type CCRF-CEM)” value in assay [5] was found to be 10.
For the molecule `CC(C(=O)OC[C@H]1OC[C@@H](n2ccc(N)nc2=O)O1)c1ccccc1.Cl` (stereo partly shown) [Compound 106, HYDROCHLORIDE], the IC50 was 14 nM in assay [1] (read-out: IC50 H-460 24 h, 24 h drug exposure, wash, another 48 hr, 3H-TdR incorporation at 72 hr, HYDROCHLORIDE); 37 nM in assay [2] (read-out: IC50 MCF-7 24 h, 24 h drug exposure, wash, another 48 hr, 3H-TdR incorporation at 72 hr, HYDROCHLORIDE); 95 nM in assay [3] (read-out: IC50 SF-268 24 h, 24 h drug exposure, wash, another 48 hr, 3H-TdR incorporation at 72 hr, HYDROCHLORIDE); 10 nM in assay [4] (read-out: IC50 CCRF-CEM 24 h, 24 h drug exposure, wash, another 48 hr, 3H-TdR incorporation at 72 hr, HYDROCHLORIDE); 46000 nM in assay [5] (read-out: IC50 CEM/dCK- 24 h, 24 h drug exposure, wash, another 48 hr, deoxycytidine kinase-deficient CCRF-CEM, HYDROCHLORIDE).
As for `CCOC(=O)OC[C@H]1OC[C@@H](n2ccc(N)nc2=O)O1` [Compound 46, CARBONIC ACID 4-(4- AMINO-2-OXO-2H- PYRIMIDIN-1-YL)- [1,3]DIOXOLAN-2- YLMETHYL ESTER ETHYL ESTER], the IC50 in assay [1] (setting [6]) is 86 nM; in assay [2] (setting [7]) it was 160 nM; in assay [3] (setting [8]), 560 nM; in assay [4] (setting [9]), 60 nM; in assay [5] (setting [10]), greater than 100000 nM. Also, the “Factor* (Resistance Factor = Ratio of dCK- on Wild-type CCRF-CEM)” value in assay [5] is reported as 1,667.
As to `CCCCCCNC(=O)Nc1ccn([C@@H]2CO[C@H](CO)O2)c(=O)n1` [Compound 120, 1-HEXYL-3-[1-(2- HYDROXYMETHYL- [1,3]DIOXOLAN-4-YL)-2- OXO-1,2-DIHYDRO- PYRIMIDIN-4-YL]-UREA], the IC50 in assay [1] (setting [6]) was greater than 100000 nM; in assay [2] (setting [7]), 64000 nM; in assay [3] (setting [8]), greater than 100000 nM; in assay [4] (setting [9]), greater than 100000 nM; in assay [5] (setting [10]) it was greater than 100000 nM.
`O=C(Nc1ccn([C@@H]2CO[C@H](CO)O2)c(=O)n1)OCc1ccccc1` [Compound 50, [1-(2-HYDROXYMETHYL- [1,3]DIOXOLAN-4-YL)- CYTOSYL]-CARBAMIC ACID BENZYL ESTER]: the IC50 was 1200 nM in assay [1] (setting [6]); 820 nM in assay [2] (setting [7]); 1300 nM in assay [3] (setting [8]); 170 nM in assay [4] (setting [9]); greater than 100000 nM in assay [5] (setting [10]). For the same molecule, in assay [5], the “Factor* (Resistance Factor = Ratio of dCK- on Wild-type CCRF-CEM)” value came to 588.
Regarding `COCCOCOC[C@H]1OC[C@@H](n2ccc(N)nc2=O)O1` [Compound 62, 4-AMINO-1-[2-(2- METHOXY- ETHOXYMETHOXYMETHYL)- [1,3]DIOXOLAN-4-YL]-1H- PYRIMIDIN-2-ONE], the IC50 in assay [1] (setting [6]) was 890 nM; in assay [2] (setting [7]), 1700 nM; in assay [3] (setting [8]), 4300 nM; in assay [4] (setting [9]) it was 350 nM; in assay [5] (setting [10]), greater than 100000 nM. Further, the “Factor* (Resistance Factor = Ratio of dCK- on Wild-type CCRF-CEM)” value in assay [5] stood at 288.
With `COC(OC)(OC[C@H]1OC[C@@H](n2ccc(N)nc2=O)O1)c1ccccc1` [Compound 139, 4-AMINO-1-[2- (DIMETHOXY-PHENYL- METHOXYMETHYL)- [1,3]DIOXOLAN-4-YL]-1H- PYRIMIDIN-2-ONE], the IC50 in assay [1] (setting [6]) came to 810 nM; in assay [1] (read-out: IC50 H-460 24 h, 24 h drug exposure, wash, another 48 hr, 3H-TdR incorporation at 72 hr), 510 nM; in assay [2] (setting [7]), 1400 nM; in assay [2] (read-out: IC50 MCF-7 24 h, 24 h drug exposure, wash, another 48 hr, 3H-TdR incorporation at 72 hr), 1700 nM; in assay [3] (setting [8]), 1300 nM; in assay [3] (read-out: IC50 SF-268 24 h, 24 h drug exposure, wash, another 48 hr, 3H-TdR incorporation at 72 hr), 1700 nM. The IC50 is 400 nM in assay [4] (setting [9]); 420 nM in assay [4] (read-out: IC50 CCRF-CEM 24 h, 24 h drug exposure, wash, another 48 hr, 3H-TdR incorporation at 72 hr); greater than 100000 nM in assay [5] (setting [10]). Moreover, in assay [5], the “Factor* (Resistance Factor = Ratio of dCK- on Wild-type CCRF-CEM)” value was greater than 250.
Regarding `CC(C)(C)OC(=O)N(CCCCC(=O)OC[C@H]1OC[C@@H](n2ccc(N)nc2=O)O1)Cc1ccccc1` [Compound 111, 5-(BENZYL-TERT- BUTOXYCARBONYL-AMINO)- PENTANOIC ACID 4-(4- AMINO-2-OXO-2H- PYRIMIDIN-1-YL)- [1,3]DIOXOLAN-2- YLMETHYL ESTER], the IC50 in assay [1] (setting [6]) is 0.13 nM; in assay [2] (setting [7]), 0.26 nM; in assay [3] (setting [8]), 2.1 nM; in assay [4] (setting [9]), 0.2 nM; in assay [5] (setting [10]), 2600 nM. In assay [5], the “Factor* (Resistance Factor = Ratio of dCK- on Wild-type CCRF-CEM)” value is listed as 13000.
In the case of `CC(=O)OCC1OC2OC(C)(OC[C@H]3OC[C@@H](n4ccc(N)nc4=O)O3)OC2C(OC(C)=O)C1OC(C)=O` (stereo in doubt) [Compound 151, Acetic acid 6-acetoxy-5-acetoxymethyl-2-[4-(4-amino-2-oxo-2H-pyrimidin-1-yl)-[1,3]dioxolan-2-ylmethoxy]-2-methyl-tetrahydro-[1,3]dioxolo [4,5-b]pyran-7-yl ester], the IC50 in assay [1] (setting [6]) is 9700 nM; in assay [2] (setting [7]), 8300 nM; in assay [3] (setting [8]), 4400 nM; in assay [4] (setting [9]), 590 nM; in assay [5] (setting [10]), greater than 100000 nM. In assay [5], the “Factor* (Resistance Factor = Ratio of dCK- on Wild-type CCRF-CEM)” value is greater than 169.
`CCCCCCOC(=O)OC[C@H]1OC[C@@H](n2ccc(N)nc2=O)O1` [Compound 126, CARBONIC ACID 4-(4- AMINO-2-OXO-2H- PYRIMIDIN-1-YL)- [1,3]DIOXOLAN-2- YLMETHYL ESTER HEXYL ESTER]: the IC50 came out at 4.1 nM in assay [1] (setting [6]); 2 nM in assay [2] (setting [7]); 8.5 nM in assay [3] (setting [8]); 1.6 nM in assay [4] (setting [9]); 13000 nM in assay [5] (setting [10]). In addition, the “Factor* (Resistance Factor = Ratio of dCK- on Wild-type CCRF-CEM)” value in assay [5] is listed as 8,125.
`Nc1ccn([C@@H]2CO[C@H](COC(=O)CCCCCNCc3ccccc3)O2)c(=O)n1.O=C(O)C(F)(F)F.O=C(O)C(F)(F)F` (stereo in doubt) [Compound 83, 6-Benzylamino-hexanoic acid 4-(4-amino-2-oxo-2H-pyrimidin-1-yl)-[1,3]dioxolan-2-ylmethyl ester bis trifluoroacetate salt]: the IC50 in assay [1] (read-out: IC50 H-460 24 h, 24 h drug exposure, wash, another 48 hr, 3H-TdR incorporation at 72 hr, bis trifluoroacetate salt) was 54 nM; in assay [2] (read-out: IC50 MCF-7 24 h, 24 h drug exposure, wash, another 48 hr, 3H-TdR incorporation at 72 hr, bis trifluoroacetate salt), 83 nM; in assay [3] (setting [8]), 260 nM; in assay [4] (setting [9]), 22 nM; in assay [5] (setting [10]), greater than 100000 nM. For the same molecule, the “Factor* (Resistance Factor = Ratio of dCK- on Wild-type CCRF-CEM)” value in assay [5] is on record as 4,545.
Consider `O=C(Nc1ccn([C@@H]2CO[C@H](COC(=O)Oc3ccc(Cl)cc3)O2)c(=O)n1)Oc1ccc(Cl)cc1` [Compound 103], for which the IC50 was found to be 52 nM in assay [1] (setting [11]); 18 nM in assay [2] (setting [12]); 63 nM in assay [3] (setting [13]); 11 nM in assay [4] (setting [14]); 50000 nM in assay [5] (Homo sapiens, CCRF-CEM, read-out: IC50 CEM/dCK- 24 h). Moreover, the “Factor* (Resistance Factor = Ratio of dCK- on Wild-type CCRF-CEM)” value in assay [5] is listed as 4,545.
As to `Nc1cc[n+]([C@@H]2CO[C@H](COC(c3ccccc3)(c3ccccc3)c3ccccc3)O2)c(=O)[nH]1` (stereo in doubt) [Compound 53, 4-AMINO-1-(2- TRITYLOXYMETHYL- [1,3]DIOXOLAN-4-YL)-1H- PYRIMIDIN-2-ONE], the IC50 stood at 8900 nM in assay [1] (setting [6]); 10000 nM in assay [2] (setting [7]); 10000 nM in assay [3] (setting [8]); 2000 nM in assay [4] (setting [9]); 37000 nM in assay [5] (setting [10]). The “Factor* (Resistance Factor = Ratio of dCK- on Wild-type CCRF-CEM)” value in assay [5] is 19.
